The values below are quoted from earlier work in patent EP1133548B2, “DETERGENT COMPOSITIONS IN TABLET FORM” (UNILEVER PLC, priority 1998, dated 2000).

Molecules are shown by their SMILES.

The conditions of this series: 20°C; grams of solid to form a saturated solution in 100 grams of water.
Take `NC(N)=O` [Urea]: the “Water Solubility (g/100g)” value was over 100 g/100g.

For the molecule `O=P(O)(O)OP(=O)(O)OP(=O)(O)O` [Sodium tripolyphosphate anhydrous], the “Water Solubility (g/100g)” value is 15 g/100g.

Consider `O=BO[O-].[Na+]` [Sodium perborate anhydrous], for which the “Water Solubility (g/100g)” value is 3.7 g/100g.
